Measurements reported in ChEMBL document CHEMBL4138123, “Design, synthesis and biological evaluation of novel pyrazolochalcones as potential modulators of PI3K/Akt/mTOR pathway and inducers of apoptosis in breast cancer cells” (Eur J Med Chem, 2017).

Experiments:
Type in all cases: functional
SK-MEL-2 [1] = test: Cytotoxicity against human SK-MEL-2 cells assessed as cell growth at 100 uM after 48 hrs by sulforhodamine B assay relative to control; conditions: SK-MEL-2, 48 h, read-out: Activity
SNB-75 [2] = test: Cytotoxicity against human SNB75 cells assessed as cell growth at 10 uM after 48 hrs by sulforhodamine B assay relative to control; conditions: SNB-75, 48 h, read-out: Activity
HOP-92 [3] = test: Cytotoxicity against human HOP92 cells assessed as cell growth at 0.1 uM after 48 hrs by sulforhodamine B assay relative to control; conditions: HOP-92, 48 h, read-out: Activity
SNB-75 [4] = test: Cytotoxicity against human SNB75 cells assessed as cell growth at 0.1 uM after 48 hrs by sulforhodamine B assay relative to control; conditions: SNB-75, 48 h, read-out: Activity
HOP-92 [5] = test: Cytotoxicity against human HOP92 cells assessed as cell growth at 10 uM after 48 hrs by sulforhodamine B assay relative to control; conditions: HOP-92, 48 h, read-out: Activity
SK-MEL-2 [6] = test: Cytotoxicity against human SK-MEL-2 cells assessed as cell growth at 10 uM after 48 hrs by sulforhodamine B assay relative to control; conditions: SK-MEL-2, 48 h, read-out: Activity
SF-295 [7] = test: Cytotoxicity against human SF295 cells assessed as cell growth at 1 uM after 48 hrs by sulforhodamine B assay relative to control; conditions: SF-295, 48 h, read-out: Activity
HOP-92 [8] = test: Cytotoxicity against human HOP92 cells assessed as cell growth at 1 uM after 48 hrs by sulforhodamine B assay relative to control; conditions: HOP-92, 48 h, read-out: Activity
SF-295 [9] = test: Cytotoxicity against human SF295 cells assessed as cell growth at 0.01 uM after 48 hrs by sulforhodamine B assay relative to control; conditions: SF-295, 48 h, read-out: Activity
SNB-75 [10] = test: Cytotoxicity against human SNB75 cells assessed as cell growth at 0.01 uM after 48 hrs by sulforhodamine B assay relative to control; conditions: SNB-75, 48 h, read-out: Activity
SF-295 [11] = test: Cytotoxicity against human SF295 cells assessed as cell growth at 0.1 uM after 48 hrs by sulforhodamine B assay relative to control; conditions: SF-295, 48 h, read-out: Activity
HOP-92 [12] = test: Cytotoxicity against human HOP92 cells assessed as cell growth at 100 uM after 48 hrs by sulforhodamine B assay relative to control; conditions: HOP-92, 48 h, read-out: Activity
SK-MEL-2 [13] = test: Cytotoxicity against human SK-MEL-2 cells assessed as cell growth at 0.01 uM after 48 hrs by sulforhodamine B assay relative to control; conditions: SK-MEL-2, 48 h, read-out: Activity
LOX IMVI [14] = test: Cytotoxicity against human LOXIMVI cells assessed as cell growth at 0.01 uM after 48 hrs by sulforhodamine B assay relative to control; conditions: read-out: Activity
HOP-92 [15] = test: Cytotoxicity against human HOP92 cells assessed as growth inhibition after 48 hrs by sulforhodamine B assay; conditions: HOP-92, 48 h; for CC50: read-out: LC50 (the source's name)
LOX IMVI [16] = test: Cytotoxicity against human LOXIMVI cells assessed as cell growth at 1 uM after 48 hrs by sulforhodamine B assay relative to control; conditions: read-out: Activity
SF-295 [17] = test: Cytotoxicity against human SF295 cells assessed as cell growth at 100 uM after 48 hrs by sulforhodamine B assay relative to control; conditions: SF-295, 48 h, read-out: Activity
SF-295 [18] = test: Cytotoxicity against human SF295 cells assessed as cell growth at 10 uM after 48 hrs by sulforhodamine B assay relative to control; conditions: SF-295, 48 h, read-out: Activity
SNB-75 [19] = test: Cytotoxicity against human SNB75 cells assessed as cell growth at 1 uM after 48 hrs by sulforhodamine B assay relative to control; conditions: SNB-75, 48 h, read-out: Activity
LOX IMVI [20] = test: Cytotoxicity against human LOXIMVI cells assessed as cell growth at 10 uM after 48 hrs by sulforhodamine B assay relative to control; conditions: read-out: Activity
LOX IMVI [21] = test: Cytotoxicity against human LOXIMVI cells assessed as cell growth at 0.1 uM after 48 hrs by sulforhodamine B assay relative to control; conditions: read-out: Activity
HOP-92 [22] = test: Cytotoxicity against human HOP92 cells assessed as cell growth at 0.01 uM after 48 hrs by sulforhodamine B assay relative to control; conditions: HOP-92, 48 h, read-out: Activity
SF-295 [23] = test: Cytotoxicity against human SF295 cells assessed as growth inhibition after 48 hrs by sulforhodamine B assay; conditions: SF-295, 48 h
SK-MEL-2 [24] = test: Cytotoxicity against human SK-MEL-2 cells assessed as cell growth at 0.1 uM after 48 hrs by sulforhodamine B assay relative to control; conditions: SK-MEL-2, 48 h, read-out: Activity
SK-MEL-2 [25] = test: Cytotoxicity against human SK-MEL-2 cells assessed as cell growth at 1 uM after 48 hrs by sulforhodamine B assay relative to control; conditions: SK-MEL-2, 48 h, read-out: Activity
SNB-75 [26] = test: Cytotoxicity against human SNB75 cells assessed as cell growth at 100 uM after 48 hrs by sulforhodamine B assay relative to control; conditions: SNB-75, 48 h, read-out: Activity
LOX IMVI [27] = test: Cytotoxicity against human LOXIMVI cells assessed as cell growth at 100 uM after 48 hrs by sulforhodamine B assay relative to control; conditions: read-out: Activity
CAKI-1 [28] = test: Cytotoxicity against human Caki1 cells assessed as cell growth at 100 uM after 48 hrs by sulforhodamine B assay relative to control; conditions: CAKI-1, 48 h, read-out: Activity
CAKI-1 [29] = test: Cytotoxicity against human Caki1 cells assessed as cell growth at 0.1 uM after 48 hrs by sulforhodamine B assay relative to control; conditions: CAKI-1, 48 h, read-out: Activity
CAKI-1 [30] = test: Cytotoxicity against human Caki1 cells assessed as cell growth at 10 uM after 48 hrs by sulforhodamine B assay relative to control; conditions: CAKI-1, 48 h, read-out: Activity
CAKI-1 [31] = test: Cytotoxicity against human Caki1 cells assessed as cell growth at 0.01 uM after 48 hrs by sulforhodamine B assay relative to control; conditions: CAKI-1, 48 h, read-out: Activity
CAKI-1 [32] = test: Cytotoxicity against human Caki1 cells assessed as growth inhibition after 48 hrs by sulforhodamine B assay; conditions: CAKI-1, 48 h
CAKI-1 [33] = test: Cytotoxicity against human Caki1 cells assessed as cell growth at 1 uM after 48 hrs by sulforhodamine B assay relative to control; conditions: CAKI-1, 48 h, read-out: Activity

Row | Compound | growth at 100 µM (SK-MEL-2 [1]) [%] | growth at 0.1 µM (HOP-92 [3]) [%] | growth at 10 µM (HOP-92 [5]) [%] | growth at 10 µM (SK-MEL-2 [6]) [%] | growth at 1 µM (SF-295 [7]) [%] | growth at 1 µM (HOP-92 [8]) [%] | growth at 0.01 µM (SF-295 [9]) [%] | growth at 0.1 µM (SF-295 [11]) [%] | growth at 100 µM (HOP-92 [12]) [%] | growth at 0.01 µM (SK-MEL-2 [13]) [%] | growth at 0.01 µM (LOX IMVI [14]) [%] | TGI (HOP-92 [15]) [µM] | CC50 (HOP-92 [15]) [µM] | growth at 1 µM (LOX IMVI [16]) [%] | growth at 100 µM (SF-295 [17]) [%] | growth at 10 µM (SF-295 [18]) [%] | growth at 10 µM (LOX IMVI [20]) [%] | growth at 0.1 µM (LOX IMVI [21]) [%] | growth at 0.01 µM (HOP-92 [22]) [%] | GI50 (SF-295 [23]) [nM] | also measured
1 | COc1ccc(-c2cc(/C=C/C(=O)c3cc(OC)c(OC)c(OC)c3)[nH]n2)cc1OC | -92 | 74 | -25 | -12 | 77 | 70 | 97 | 87 | -84 | 100 | 96 | 5.48 | 26.6 | 78 | -91 | -46 | -91 | 94 | 103 | 1670 | growth at 10 µM (SNB-75 [2]): -46%; growth at 0.1 µM (SNB-75 [4]): 77%; growth at 0.01 µM (SNB-75 [10]): 88%; GI50 (HOP-92 [15]): 1610 nM; growth at 1 µM (SNB-75 [19]): 63%; LC50 (SF-295 [23]): 12.5 µM; TGI (SF-295 [23]): 4.26 µM; growth at 0.1 µM (SK-MEL-2 [24]): 95%; growth at 1 µM (SK-MEL-2 [25]): 97%; growth at 100 µM (SNB-75 [26]): -82%; growth at 100 µM (LOX IMVI [27]): -69%
2 | COc1cc2c(cc1OC)C(=O)/C(=C/c1cc(-c3ccc4c(c3)OCO4)n[nH]1)C2 |  |  |  |  | 86 |  | 95 | 95 |  |  |  |  |  |  | -93 | -81 |  |  |  | 1640 | growth at 10 µM (SNB-75 [2]): -100%; growth at 0.1 µM (SNB-75 [4]): 94%; growth at 100 µM (CAKI-1 [28]): -81%; growth at 0.1 µM (CAKI-1 [29]): 97%; growth at 0.01 µM (SNB-75 [10]): 85%; growth at 10 µM (CAKI-1 [30]): -87%; growth at 0.01 µM (CAKI-1 [31]): 98%; growth at 1 µM (SNB-75 [19]): 92%; GI50 (CAKI-1 [32]): 1500 nM; LC50 (CAKI-1 [32]): 6 µM; TGI (CAKI-1 [32]): 3000 nM; growth at 1 µM (CAKI-1 [33]): 79%; LC50 (SF-295 [23]): 6.5 µM; TGI (SF-295 [23]): 3.26 µM; growth at 100 µM (SNB-75 [26]): -96%
3 | COc1cc(-c2cc(/C=C/C(=O)c3ccc(Cl)c(Cl)c3)[nH]n2)cc(OC)c1OC | -60 | 90 | -8 | 68 |  | 89 |  |  | -56 | 94 | 96 | 8.25 | 75.9 | 88 |  |  | 16 | 92 | 89 |  | growth at 100 µM (CAKI-1 [28]): 11%; growth at 0.1 µM (CAKI-1 [29]): 91%; growth at 10 µM (CAKI-1 [30]): 62%; growth at 0.01 µM (CAKI-1 [31]): 91%; LC50 (CAKI-1 [32]): > 100 µM; TGI (CAKI-1 [32]): > 100000 nM; growth at 1 µM (CAKI-1 [33]): 87%; growth at 0.1 µM (SK-MEL-2 [24]): 88%; growth at 1 µM (SK-MEL-2 [25]): 99%; growth at 100 µM (LOX IMVI [27]): -58%
4 | COc1ccc(C(=O)/C=C/c2cc(-c3ccc(OC)c(OC)c3)n[nH]2)cc1OC | -58 | 81 | -7 | -44 | 70 | 74 | 85 | 90 | -15 | 110 | 100 | 8.12 | > 100 | 68 | -57 | -30 | -89 | 99 | 83 | 1600 | growth at 10 µM (SNB-75 [2]): -65%; growth at 0.1 µM (SNB-75 [4]): 89%; growth at 0.01 µM (SNB-75 [10]): 82%; GI50 (HOP-92 [15]): 1970 nM; growth at 1 µM (SNB-75 [19]): 58%; TGI (SF-295 [23]): 5.05 µM; growth at 0.1 µM (SK-MEL-2 [24]): 113%; growth at 1 µM (SK-MEL-2 [25]): 111%; growth at 100 µM (SNB-75 [26]): -82%; growth at 100 µM (LOX IMVI [27]): -91%
5 | COc1cc(-c2cc(/C=C/C(=O)c3ccc(N)cc3)[nH]n2)cc(OC)c1OC | -85 | 82 | 28 | -15 | 82 | 79 | 88 | 89 | -35 | 106 | 98 | 27.6 | > 100 | 83 | -95 | 4 | -78 | 99 | 88 | 2550 | GI50 (HOP-92 [15]): 3680 nM; LC50 (SF-295 [23]): 34.8 µM; TGI (SF-295 [23]): 10.9 µM; growth at 0.1 µM (SK-MEL-2 [24]): 111%; growth at 1 µM (SK-MEL-2 [25]): 104%; growth at 100 µM (LOX IMVI [27]): -82%
